Test results as given in patent US20240317762A1, “PHTHALAZINONE-BASED PARP-1 INHIBITORS” (Oregon Health & Science University, priority 2021, published 2024).
Values joined by “and” are separate entries in the source; they are usually repeats but may differ in a detail not shown here. Equal values may be shown once.

What was measured:
HEK 293 PARP-1 KO cells = assay: cell proliferation (MTT) assay in PARP-1 KO cells; type: cell-based, human; details: PARP-1 KO vs control HEK 293 cells, MTT 72 h
Description: Error bars represent SEM. […] Error bars represent SEM. […] Error bars represent SEM.

PARP-1 [1] = biological target: T1, PARP-1 (Homo sapiens, UniProt P09874); assay: in-cell competition labeling with ad-olaparib photoaffinity probe; type: cell-based
Protocol: Photocrosslinking in intact cells. HEK293 CRL and PARP-1 KO cells were grown in DMEM for 2 days in a 60 mm dish for 2 days to reach 80-90% confluency. […] Cells were then washed once with PBS, covered with PBS and irradiated for 5 min in the RPR-100 Photochemical Reactor (Rayonet) equipped with 350 nm lamps at 4° C. Cells were lysed on ice in 1% SDS, 1% Triton X-100 and EDTA-free protease inhibitor cocktail (Roche) in PBS for 10 min and then probe sonicated to shear the nuclear DNA. Protein concentration was determined with Bio-Rad Protein assay. The lysate was diluted in PBS to a final Click reaction concentration of 2 mg/mL.
Click Chemistry. Reaction was started by mixing 30 μL of each sample with 15 μL of PBS based 3× Click reaction mixture containing (final concentrations): 100 μM Tris[(1-benzyl-1H-1,2,3triazol-4-yl)methyl]amine (TBTA, Click Chemistry Tools), 1 mM CuSO4, 40 μM tetramethylrhodamine (TAMRA)-azide (Click Chemistry Tools), 1 mM Tris(2-carboxyethyl)phosphine hydrochloride (TCEP, Thermo Fisher) and 15% tert-Butyl alcohol, and let to procced for 1 h at RT while gently shaking. Reactions were stopped by adding 4× Laemmli sample buffer and boiling at 95° C. for 5 min.
In gel fluorescence, western blotting and quantification. Samples were loaded to 8 or 10% SDS-polyacrylamide gels and run until the dye front left the gel. First, in-gel fluorescence was detected with ChemiDoc XRS+ (Biorad) using Rhodamine filter and then the proteins were transferred on nitrocellulose membrane, the membrane was blocked and probed for PARP-1 (1:3000) and alpha-tubulin (1:1000). Both antibodies were from cell signaling. Band intensities we quantified with ImageJ.
(§1) FIGS. 6A-6E. […] 0.1 μM ad-olaparib (chemical structure indicated in panel a) was added to the cells for 1 hour before undergoing a UV treatment for 5 minutes in cold PBS. Cells were lysed and sonicated in PBS (1% Triton X-100+1% SDS), clicked with TAMRA-azide and run out on SDS-PAGE. The gel was imaged for TAMRA and probed for PARP-1 (Bethyl Laboratories), and alpha-tubulin (X). FIGS. 6B, 6D) Quantification of western blot images. TAMRA or ADPr values are normalized to PARP-1 within each replicate and plotted as percentage compared to DMSO. Error bars indicate SEM (n=3-4). Statistical significance of off-rate calculated via multiple t-tests (p<0.05). […] Cells were subsequently treated with PARGi (10 μM) for 30 minutes, lysed using RIPA buffer, run out on SDS-PAGE, and probed for ADPr (Cell Signaling) and PARP-1 (Bethyl Laboratories). FIG. 6E) ES-8 cells were treated with indicated concentration of inhibitors for 72 hours before measuring cell viability using the CellTiter-Glo kit (Promega G7573). IC50 values were calculated using R statistical software.

D770A PARP-1 = D770A PARP-1 (Homo sapiens, UniProt P09874, D770A); assay: fluorescence polarization DNA competition and affinity assays, D770A mutant; type: binding
Protocol: FIG. 4B) Helical domain (pink cartoon) movement observed during the simulation, the red arrows indicate length and direction of movement. FIG. 4C) The residue-residue distance observed between the Ca atoms R878-D770 and Y889-V758, the increased distance sampling corresponds to the helical domain movement. FIG. 4D) PARP-1 WT, D770A, or R878A (40 nM) was incubated with a dumbbell DNA probe carrying an internal FAM group and a central nick at 20 nM with or without compound (25 μM) for 30 minutes. An unlabeled competitor was added and the decrease in fluorescence polarization was measured across time. FIG. 4E) The Kd of PARP-1 WT, D770A, or R878A for a DNA dumbbell probe containing a central nick (5 nM) was measured in a fluorescence polarization assay with and without inhibitor (5 μM). Error bars represent Standard Error of the Mean (SEM) (n=3).

R878A PARP-1 = R878A PARP-1 (Homo sapiens, UniProt P09874, R878A); assay: catalytic activity of PARP-1 mutant expressed in HEK 293 cells, R878A; type: biochemical; details: 3 μM AZ0108
[2] = tested on: Ewing sarcoma cell line EW-8; assay: ES-8 viability screen (CellTiter-Glo); type: cell-based
Protocol: Cell viability was measured using the CellTiter-Glo (Promega, G7573) assay and read using an Envision (PerkinElmer) plate reader. Compound source plates (96-well) were prepared by solubilizing each drug in DMSO to a maximum concentration of 1-50 mM, then arraying samples in 10-point dose-response with 3-fold dilution. Positive and negative controls (staurosporine at 10 mM and DMSO, respectively) were added to the source plates. Drug was transferred from the source plate to the assay plate using a Biomek FX (Beckman Coulter) liquid handler equipped with a pin tool which transferred ˜100 nl into a final volume of 100 μl, resulting in ˜1000-fold dilution. At least two biological replicates (assay performed on different day with same drug plate and independent cell preparation) were obtained for each drug. To analyze the assay, the relative light unit signal in each well was first log 2 transformed, then normalized by subtracting the mean of the negative controls wells on each plate.
as §1

PARP-1 [3] = biological target: T1, PARP-1; assay: fluorescence polarization DNA binding affinity assay; details: 5 μM inhibitor
Description: The full-length WT PARP-1 protein used in these assays was purified as described previously (30).

T1 sequence (P09874 whole entry): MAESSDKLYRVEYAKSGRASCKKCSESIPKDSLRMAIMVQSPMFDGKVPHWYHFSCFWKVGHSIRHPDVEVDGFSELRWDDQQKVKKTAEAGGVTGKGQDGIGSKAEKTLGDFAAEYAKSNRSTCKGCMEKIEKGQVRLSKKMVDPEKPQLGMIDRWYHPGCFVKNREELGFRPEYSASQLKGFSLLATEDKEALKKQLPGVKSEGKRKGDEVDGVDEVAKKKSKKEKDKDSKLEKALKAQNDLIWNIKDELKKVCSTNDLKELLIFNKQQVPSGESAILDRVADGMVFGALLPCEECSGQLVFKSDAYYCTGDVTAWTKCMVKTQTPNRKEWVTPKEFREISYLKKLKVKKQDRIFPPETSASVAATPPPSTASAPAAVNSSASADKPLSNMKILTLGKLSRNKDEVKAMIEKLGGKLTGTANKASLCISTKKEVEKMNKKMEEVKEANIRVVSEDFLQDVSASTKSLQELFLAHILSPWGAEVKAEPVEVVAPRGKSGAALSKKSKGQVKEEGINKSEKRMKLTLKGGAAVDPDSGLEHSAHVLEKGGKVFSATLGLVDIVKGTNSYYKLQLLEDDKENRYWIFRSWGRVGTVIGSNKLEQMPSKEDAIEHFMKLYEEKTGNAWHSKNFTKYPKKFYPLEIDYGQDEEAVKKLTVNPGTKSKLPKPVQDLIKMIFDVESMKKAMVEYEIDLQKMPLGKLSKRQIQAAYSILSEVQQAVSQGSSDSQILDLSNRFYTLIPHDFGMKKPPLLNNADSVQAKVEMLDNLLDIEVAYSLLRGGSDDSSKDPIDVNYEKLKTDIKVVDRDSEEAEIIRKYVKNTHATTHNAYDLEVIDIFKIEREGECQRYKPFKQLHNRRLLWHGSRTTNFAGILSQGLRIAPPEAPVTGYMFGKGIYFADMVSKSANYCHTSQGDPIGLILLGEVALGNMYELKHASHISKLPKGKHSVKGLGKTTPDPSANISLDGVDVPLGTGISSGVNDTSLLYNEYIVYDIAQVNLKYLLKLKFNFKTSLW
D770A PARP-1, sequence (P09874 whole entry D770A, the tested form may be a part): as the sequence (P09874 whole entry) above, with D770A counted along it
R878A PARP-1, sequence (P09874 whole entry R878A): as the sequence (P09874 whole entry) above, with R878A counted along it

In the case of “(S)-4-(difluoro(3-(6-methyl-3-(trifluoromethyl)-5,6,7,8-tetrahydro-[1,2,4]triazolo[4,3-a]pyrazine-7-carbonyl)phenyl)methyl)phthalazin-1(2H)-one [AZ0108]”, the “increase in the EC50 value on cell growth by KO of PARP-1” value (HEK 293 PARP-1 KO cells) is reported as 43 fold, the “labeling of PARP-1 by ad-olaparib after pre-treatment” value (PARP-1 [1]; 10 μM inhibitor, 0.1 μM ad-olaparib) is reported as “substantially blocked” and the “recovery of labeling of PARP-1 by ad-olaparib after washout” value (PARP-1 [1]; washout (3 h)) is reported as “more than 2 fold”. For the same substance, the “D770A PARP-1's affinity for DNA” value (D770A PARP-1; 5 μM inhibitor) was “nor did it change”, the “exchange of the D770A PARP-1:labled DNA with unlabeled DNA” value (D770A PARP-1; 25 μM compound) was “did not impact” and the “inhibition of R878A PARP-1 activity” value (R878A PARP-1) was “inhibited”. The “Fold Difference to Pip6” value ([2]; ratio of EC50 values) was 86, the EC50 ([2]; viability, 72 h) was 20 nM and 20.9 nM and the “increase of the affinity of PARP-1 for DNA” value (PARP-1 [3]; DNA dumbbell probe with central nick 5 nM) was 4 fold. For the same substance, the “effect on the affinity of PARP-1 for nicked DNA” value (PARP-1 [3]; compared to DMSO control) was “more pronounced effect on DNA binding to PARP-1”.
